Assays:
[1] = biological target: T1, hTLR7 (human Toll-like receptor 7) (Homo sapiens, UniProt Q9NYK1); assay: HEK-Blue hTLR7 reporter assay (QUANTI-Blue, OD650); assay type: cell-based; conditions: HEK-Blue hTLR7 cells, 24 h; class symbols; read-out: Reporter assay TLR7 EC50
T1 construct: host or cells: HEK-Blue hTLR7 (HEK293-derived reporter cells)
T1 sequence (Q9NYK1 27-1049): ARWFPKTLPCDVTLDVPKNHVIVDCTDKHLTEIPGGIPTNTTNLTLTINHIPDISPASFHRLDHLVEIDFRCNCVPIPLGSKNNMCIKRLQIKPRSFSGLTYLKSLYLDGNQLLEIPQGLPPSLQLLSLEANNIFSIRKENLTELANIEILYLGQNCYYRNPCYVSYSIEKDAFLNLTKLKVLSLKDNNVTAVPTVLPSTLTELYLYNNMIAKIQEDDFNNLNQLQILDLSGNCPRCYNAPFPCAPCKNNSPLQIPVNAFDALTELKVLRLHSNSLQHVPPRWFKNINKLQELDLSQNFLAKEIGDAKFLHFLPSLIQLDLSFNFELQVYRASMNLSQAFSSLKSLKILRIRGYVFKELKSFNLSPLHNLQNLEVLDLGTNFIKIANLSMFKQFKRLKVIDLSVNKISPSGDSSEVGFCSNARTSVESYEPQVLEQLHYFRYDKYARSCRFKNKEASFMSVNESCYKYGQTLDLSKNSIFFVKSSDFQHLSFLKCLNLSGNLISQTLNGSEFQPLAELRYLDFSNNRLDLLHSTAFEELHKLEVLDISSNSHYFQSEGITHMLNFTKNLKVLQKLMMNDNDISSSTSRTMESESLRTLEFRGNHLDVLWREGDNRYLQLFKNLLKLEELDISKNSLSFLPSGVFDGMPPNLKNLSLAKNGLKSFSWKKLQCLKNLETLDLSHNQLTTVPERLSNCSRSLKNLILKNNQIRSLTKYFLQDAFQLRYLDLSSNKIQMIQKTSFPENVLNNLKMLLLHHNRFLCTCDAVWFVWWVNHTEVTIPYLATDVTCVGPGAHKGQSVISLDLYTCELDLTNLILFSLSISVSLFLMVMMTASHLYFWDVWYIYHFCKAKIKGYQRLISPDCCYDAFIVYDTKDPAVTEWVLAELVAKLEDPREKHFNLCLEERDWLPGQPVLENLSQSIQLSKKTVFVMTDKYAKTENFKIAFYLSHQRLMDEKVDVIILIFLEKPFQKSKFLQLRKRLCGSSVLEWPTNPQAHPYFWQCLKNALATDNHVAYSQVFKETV
Protocol: In this example, the agonistic activity of the compounds of the present application on hTLR7 (human Toll-like receptor 7) and hTLR8 (human Toll-like receptor 8) was assessed; the induction activity of the compounds on human PBMCs for TNF-α and IFN-α production was assessed in human PBMCs (human peripheral blood mononuclear cells).
All compounds were formulated in DMSO into 30 mM stock solutions and preserved at 4° C. The reference compound ([…], Cat. No. tlrl-r848-5) was purchased from InvivoGen and formulated into a 5 mg/mL stock solution in DMSO and preserved in a freezer at −20° C. HEK-Blue hTLR7 and HEK-Blue hTLR8 cell lines were purchased from InvivoGen, and human PBMCs were purchased from Shanghai Saily Biotechnology Co., Ltd. (Cat. No. XFB—HP100B).
The major instruments used in this study were multifunctional microplate reader Flexstation III (Molecular Device), Envision (Perkin Elmer), M2e (Molecular Device), and Echo555 (Labcyte). 2.1 Agonistic activity of compounds on hTLR7 (human Toll-like receptor 7) and hTLR8 (human Toll-like receptor 8)
Compound dilution: The compounds of the present application are diluted in DMSO, for example, to about 15 mM. The reference compound was added to the plates in sequence after dilution. The compounds were serially 3-fold diluted to 10 concentrations and added to 96-well plates in duplicate.
For the negative control wells, DMSO was added at 0.2 μL/well, and the reference compound was added to the positive control wells. The final concentration of DMSO was 0.2%.
Cell plating: When an 80% confluence of HEK Blue hTLR7&8 cells in the culture flask was observed under a microscope, the culture medium was discarded, 10 mL of detection medium was added, and the cells were separated by pipetting. The cells were counted on a cytometer and diluted to 500,000 cells/mL. The cells were plated at 100 μL/50,000 cells/well in the 96-well plates containing the compounds. The compounds and cells were co-incubated at 37° C. in a 5% CO2 incubator for 24 hours.
Compound activity detection: 20 μL of cell supernatant was taken from each well and added to a plate containing QUANTI-Blue™ reagent at 180 μL/well. The plate was incubated at 37° C. for 1 hour, and the absorbance at 650 nm (OD650) was measured on the multifunctional microplate reader Flexstation III.
Compound activity data analysis: The OD650 values were analyzed by GraphPad Prism software and fitted to give dose-response curves of the compounds. The EC50 values of compounds were calculated.

[2] = tested on: TNF-α production in human PBMCs; assay: Induction of TNF-α in human PBMCs (ELISA); assay type: cell-based; conditions: PBMC, 24 h, serial 4-fold dilutions, class symbols, read-out: PBMC assay TNFa EC50
Protocol: In this example, the induction activity of the compounds of the present application on human PBMCs for TNF-α and IFN-α production was assessed in human PBMCs (human peripheral blood mononuclear cells). The human PBMCs were purchased from Shanghai Saily Biotechnology Co., Ltd. (Cat. No. XFB—HP100B). PBMC cells were treated with the compounds. The compounds of the present application are diluted in DMSO, for example, to about 15 mM. The reference compound was added to the plates in sequence after diluted to 5 mg/mL. The compounds were serially 3- or 4-fold diluted to 8 concentrations and added to plates in duplicate (Table 2-1 for serial 3-fold dilutions and Table 2-2 for serial 4-fold dilutions). For the negative control wells, DMSO was added at 0.4 μL/well, and a 5 mg/mL reference compound solution was added to the positive control wells at 0.4 μL/well. The final concentration of DMSO was 0.2%. Frozen human PBMCs in cryopreservation tubes were quickly thawed in a 37° C. water bath and transferred into 50-mL centrifuge tubes. Prewarmed RPMI1640 medium was gradually added and the mixture was well mixed and centrifuged for 15 min before the supernatant was discarded. The cells were resuspended in a culture medium and counted. The cell suspension was adjusted to 2.5×10^6 cells/mL with the culture medium. Diluted cells were added at 200 μL/500,000 cells/well in 96-well plates containing the compounds. The cell plates were incubated at 37° C./5% CO2 for 24 h.
The plate was then washed thrice. […] Termination of reaction: The reaction was terminated by quickly adding the stop solution at 100 μL/well. Plate reading: The reading at wavelength 450 nm was detected by an M2e instrument within 10 min after the termination.
Compound activity data analysis: The OD450 values were converted to TNF-α and IFN-α contents by GraphPad Prism software analysis and fitted to give dose-response curves of the compounds. The EC50 values for the compounds were calculated, where the Emax values are the maximal values for TNF-α and IFN-α.

Row | EC50 [1] [nM] | Compound | EC50 [2] [nM]
1 | 100 to 1000 | CCCN(OCc1ccc(N)cc1)C(=O)C1=Cc2ccc(-c3cncc(S(=O)(=O)N4CCNCC4)c3)cc2N=C(N)C1 [Compound 69] | ≤ 10
2 | 100 to 1000 | CCCN(OCc1ccc(N)cc1)C(=O)C1=Cc2ccc(-c3cncc(S(=O)(=O)NCCO)c3)cc2N=C(N)C1 [Compound 70] | ≤ 10
3 | 100 to 1000 | CCCN(OCc1ccc(N)cc1)C(=O)C1=Cc2ccc(-c3cncc(S(=O)(=O)N4CCC(O)CC4)c3)cc2N=C(N)C1 [Compound 71] | ≤ 10
4 | 100 to 1000 | CCCN(OCc1ccc(N)cc1)C(=O)C1=Cc2ccc(-c3cncc(S(=O)(=O)N4CC[C@H](O)C4)c3)cc2N=C(N)C1 [Compound 72] | ≤ 10
5 | 100 to 1000 | CCCN(OCc1ccc(N)cc1)C(=O)C1=Cc2ccc(-c3cncc([S+](C)[O-])c3)cc2N=C(N)C1 (stereo not drawn) [Compound 73] | ≤ 10
6 | 100 to 1000 | CCCN(OCc1ccc(N)cc1)C(=O)C1=Cc2ccc(C(=O)NC(C)(C)c3ccccc3)cc2N=C(N)C1 [Compound 76] | ≤ 10
7 | 100 to 1000 | CCCN(OCc1ccc(N)cc1)C(=O)C1=Cc2ccc(C(=O)N[C@@H](C)c3ccccc3)cc2N=C(N)C1 [Compound 77] | ≤ 10
8 | 100 to 1000 | CCCN(OCc1ccc(N)cc1)C(=O)C1=Cc2ccc(C(=O)N[C@H]3C[C@@H]3c3ccccc3)cc2N=C(N)C1 [Compound 78] | ≤ 10
9 | > 1000 | CCCN(OCc1ccc(N)cc1)C(=O)C1=Cc2ccc(C(=O)NC3COC3)cc2N=C(N)C1 [Compound 81] | 10 to 50
10 | > 1000 | CCCN(OCc1ccc(N)cc1)C(=O)C1=Cc2ccc(C(=O)NC3CCCCC3)cc2N=C(N)C1 [Compound 82] | ≤ 10
11 | > 1000 | CCCN(OCc1ccc(N)cc1)C(=O)C1=Cc2ccc(C(=O)NC3CCOCC3)cc2N=C(N)C1 [Compound 84] | ≤ 10
12 | > 1000 | CCCN(OCc1ccc(N)cc1)C(=O)C1=Cc2ccc(C(=O)Nc3cncc(OC)c3)cc2N=C(N)C1 [Compound 85] | ≤ 10
13 | > 1000 | CCCN(OCc1ccc(N)cc1)C(=O)C1=Cc2ccc(C(=O)Nc3cccc(CN)c3)cc2N=C(N)C1 [Compound 86] | ≤ 10
14 | > 1000 | CCCN(OCc1ccc(N)cc1)C(=O)C1=Cc2ccc(C(=O)Nc3ncco3)cc2N=C(N)C1 [Compound 87] | ≤ 10
15 | > 1000 | CCCN(OCc1ccc(N)cc1)C(=O)C1=Cc2ccc(C(=O)Nc3ccn(C)n3)cc2N=C(N)C1 [Compound 88] | ≤ 10
16 | > 1000 | CCCN(OCc1ccc(N)cc1)C(=O)C1=Cc2ccc(C(=O)Nc3ccc4cn[nH]c4c3)cc2N=C(N)C1 [Compound 89] | 10 to 50
17 | > 1000 | CCCN(OCc1ccc(N)cc1)C(=O)C1=Cc2ccc(C(=O)Nc3ccc4c(c3)CNC4)cc2N=C(N)C1 [Compound 90] | ≤ 10
18 | > 1000 | CCCN(OCc1ccc(N)cc1)C(=O)C1=Cc2ccc(C(=O)N3CCN(C)CC3)cc2N=C(N)C1 [Compound 93] | ≤ 10
19 | 100 to 1000 | CCCN(OCc1ccc(N)cc1)C(=O)C1=Cc2ccc(C(=O)N3CC(Oc4ccccc4)C3)cc2N=C(N)C1 [Compound 94] | ≤ 10
20 | > 1000 | CCCN(OCc1ccc(N)cc1)C(=O)C1=Cc2ccc(C(=O)N3CC4(COC4)C3)cc2N=C(N)C1 [Compound 95] | ≤ 10
21 | > 1000 | CCCN(OCc1ccc(N)cc1)C(=O)C1=Cc2ccc(C(=O)N3CCN(c4ccccc4)CC3)cc2N=C(N)C1 [Compound 97] | ≤ 10
